One compound from patent US20160193240A1, “Ulmoside-A: Useful For Prevention Or Cure Of Metabolic Diseases” (COUNCIL OF SCIENTIFIC & INDUSTRIAL RESEARCH, priority 2013, published 2016) can be followed below.

One series has as its system GAL-PPARα. As to the kind of experiment: PPARα activation assay (GAL-PPARα / GAL4-Luc reporter) in HEK293 cells expressing endogenous AdipoR1. The series is classed as cell-based, human. Here is the method: A. ULMA enhances PPARα ligand activity; HEK293 cells were seeded on to 24 well plates and after 24 h, transfected with 100 ng of GAL-PPARα and 100 ng GAL4-Luc along with 100 ng eGFPC1 (Clontech) plasmids using lipofectamine LTX (Invitrogen) according to manufacturer's instructions. 24 h after transfection, cells were treated with or without 100 pM GW-7647 alone or in combination with 100 nM ULMA or 1 μg/ml globular adiponectin (gAd) for 6 h. Following which, the cells were lysed and GFP fluorescence and firefly luciferase activities were measured. Luciferase activity was normalized with GFP fluorescence and plotted as fold activity over vehicle (0.1% DMSO) treated control. Data shown in mean±SEM of three independent experiments performed in duplicates. *p<0.05 as determined by two tailed unpaired student's t-test.
The potential of ULMA to activate adiponectin receptor signaling was evaluated using a PPARα activation assay. […] 24 hours following plating, these cells were transfected with 100 ng of GAL-PPARα (PPARα cDNA fused with GAL4 DNA binding domain) and 100 ng GAL4 upstream activation sequence driven luciferase (GAL4-Luc) reporter gene that is capable of binding to any protein fused to GAL4-DNA binding domain (in this case GAL-PPARα) and 100 ng Green fluorescence expressing plasmid (GFP) that was used as an internal control, using lipofectamine LTX transfection reagent (Invitrogen) according to manufacturers' instructions. […] The cells were then lysed and luciferase activity was measured in a Promega GloMax luminometer using steady Glo luciferase assay kit (Promega) according to manufacturers' instructions; and GFP fluorescence was measured in a fluorimeter (Polarstar Galaxy, BMG Labtech). […]

For another series, the system named is wistar rats. As to the kind of experiment: Dexamethasone-mediated reduction of food intake in rats. The series is classed as in vivo, rat. Here is the method:
Six to eight week old wistar rats (n=6 per group) were housed separately and treated as indicated in the example. Daily food intake was measured and plotted. […] Data represents mean+/−SEM.
Blood was collected from cardiac punctures.
Food intake was measured every alternate day by giving measured food to each cage in evening (5.00 PM) and collection of residual food in next morning (9.00 AM) and measuring it. The residual food was subtracted from the food given and plotted.

With `O=C1c2c(cc(O)c([C@@H]3O[C@H](CO)[C@@H](O)[C@H](O)[C@H]3O)c2O)O[C@@H](c2ccc(O)c(O)c2)[C@@H]1O` [ULMA, (2S,3S)-(+)-3′,4′,5,7-tetrahydroxydihydroflavonol-6-C-β-D-glucopyranoside], the “potency in enhancing PPARα ligand activity, comparison” value in the series with GAL-PPARα (100 nM ULMA vs 1 μg/ml globular adiponectin, with 100 pM GW-7647) is recorded as “more potent than globular adiponectin”. The “enhancement of GW-7647 induced luciferase activity (PPARα ligand activity)” value with GAL-PPARα (co-treatment with 100 pM GW-7647, 100 nM ULMA or 1 μg/ml globular adiponectin, 6 hours) was “further enhanced”. Further, in the series on wistar rats (5 mg/kg ULMA oral alone), the “food intake in vehicle treated (ethanol: IP) rats” value is reported as “did not affect food intake”. In addition, the “Dex-caused loss in food intake” value with wistar rats (Dex + 5 mg/kg ULMA oral) is “alleviated it”.
